# From US20040009967A1, “Pyridyl alkene- and pyridyl alkine- acid amides as cytostatics and immuno-suppressives” (Klinge Pharma GmbH, priority 1996, published 2004)
# Like-named read-outs stand apart in the source and are kept apart here.
# Assays:
# [1] = test system: HepG2 cells; test: Growth inhibition of HepG2 cells, six days of incubation, sulforhodamin-B-method; type: cell-based, human; conditions: six days of substance incubation, read-out: IC50-value (concentration in which the cell growth was inhibited by 50%)
# Experimental: HepG2 cells plated at a density of 20,000 cells/ml in 12-well plastic dishes. Cultivation occured in Richters IMEM-ZO nutrient medium with 5% fetal calf serum (FCS) in a tissue culture incubator with a gas mixture of 5% CO2 and 95% air at a temperature of 37° C. One day after plating, the culture medium was aspirated from the cells and replaced by fresh medium which contained the respective concentrations of the test substances. For the individual concentrations and the controls without test substances, three-fold batches were done for each. Three days after the beginning of treatment, the medium was again renewed with the test compounds. After six days of substance incubation, the test was ended and the protein amount in the individual wells was determined with the sulforhodamin-B-method (according to P. Skehan et al.: New Colorimetric Cytotoxity Assay for Anticancer-Drug Screening. J. Natl. Cancer Inst. 82: 1107-1112, 1990). The IC50-values (defined as that concentration in which the cell growth was inhibited by 50%) was taken from the dose-response curves and given as a comparative measurement for the activity of the test compounds.
# [2] = test system: lymphocytes from the spleen of a Swiss mouse; test: Immunosuppressing activity: vitality of freshly isolated spleen lymphocytes, flow-through cytometer; type: cell-based; conditions: 2 days incubation, read-out: IC50 (percentage amount of vital cells)
# Source text: Many anti-tumor agents have not only a cytotoxic effect on tumor cells, but also on the blood cell system. This leads to a weakening of the immune defence, which can, in turn, be specifically employed to suppress the rejection reaction after an organ transplantation for example. Therefore, a use of the main compounds, optionally in combination with other compounds effective for these indications is suitable in diseases such as psoriasis or autoimmune diseases. In order to test the possibility for a therapeutic use in illnesses of this type, the substance activity was tested on freshly isolated lymphocytes as follows:
# The spleen of a Swiss mouse served as a lymphocyte source. The lymphocyte population was isolated from the spleen cell suspension over a ficoll gradient and taken up in IMEM-ZO culture medium with 0,1% dextran 70,000 and 2% fetal calf serum. The cells were plated at a density of ca. 500,000 cells/well/ml in a 12-well plate, 1 ml doubly concentrated test substance solution was pipetted per well and this was subsequently incubated in a tissue culture incubator at 37° C. and 5% CO2. After 2 days, a 1 ml-aliquot with 5 μl of the fluorescent dye solutions propidium iodide (8 mg/ml) and 3,3′-dihexyloxacarbocyanin iodide (40 μg/ml) each was added per well, and incubated for 3 minutes at room temperature. Subsequently, 10,000 cells per each sample were measured on a flow-through cytometer and the percentage amount of vital cells in the population was determined. By means of the dose-response curves, IC50-values were calculated which were also employed in the following Tables for the characterization of the individual substances: […]
Structure (SMILES),melting point [°C],"IC50 ([1]; Homo sapiens, 144 h) [nM]","IC50 ([2]; Lymphocyte, 48 h) [nM]",further results
"O=C(C=Cc1cccnc1)NCCCCC1CCN(S(=O)(=O)c2ccc3ccccc3c2)CC1 [Substance 219, N-{4-[1-(2-naphthyl-sulfonyl)-piperidin-4-yl]-butyl}-3-(pyridin-3-yl)-acrylamide]",85 to 87,–,–,–
"O=C(C=Cc1cccnc1)NCCCCC1CCN(C(=O)c2cccc3c2-c2ccccc2C3=O)CC1 [Substance 178, N-{4-[1-(9-oxo-9H-fluoren-4-yl-carbonyl)-piperidin-4-yl]-butyl}-3-(pyridin-3-yl)-acrylamide]",–,0.7,–,–
"O=C(C=Cc1cccnc1)NCCCCC1CCN(C2c3ccccc3CSc3ccccc32)CC1 (stereo not drawn) [Substance 136, N-{4-[1-(6,11-dihydro-dibenzo[b,e]thiepin-11-yl)-piperidin-4-yl]-butyl}-3-(pyridin-3-yl)-acrylamide]",89 to 91,2,–,–
"O=C(C=Cc1cccnc1)NCCCCC1CCN(C(=O)Nc2cccc3ccccc23)CC1 [Substance 195, N-{4-[1-(1-naphthylaminocarbonyl)-piperidin-4-yl]-butyl}-3-(pyridin-3-yl)-acrylamide]",198 to 200,–,2,–
"O=C(C=Cc1cccnc1)NCCCCC1CCN(C(=O)N(c2ccccc2)c2ccccc2)CC1 [Substance 199, N-{4-[1-(diphenylaminocarbonyl)-piperidin-4-yl]-butyl}-3-(pyridin-3-yl)-acrylamide]",–,1,0.04,–
"O=C(C=Cc1cccnc1)NCCCCC1CCN(C(=O)c2ccccc2)CC1 [Substance 159, N[4-(1-benzoylpiperidin-4-yl)-butyl]-3-(pyridin-3-yl)-acrylamide]",–,–,–,IC50 [1]: 0.5 nM; IC50 [2]: 3 nM
"O=C(C=Cc1cccnc1)NCCCCC1CCN(C(=O)C(c2ccccc2)c2ccccc2)CC1 [Substance 150, N-[4-(1-diphenylacetyl-piperidin-4-yl)-butyl]-3-(pyridin-3-yl)-acrylamide]",161,–,0.2,–
